Measured values reported in patent US20060234936A1, “Method for screening substances capable of inhibiting the hyperplasia of pancreatic cells and/or the hypersecretion of insulin by pancreatic cells” (Taisho Pharmaceutical Co., Ltd., priority 2005, published 2006).

Columns and labels:
INS-1 cells = assay: Analysis of cell growth, [3H] thymidine incorporation in INS-1 cells; type: cell-based, rat
Procedure: (§1) INS-1 cells (rat pancreatic β cell line) were cultured in an incubator at 5% CO2/95% air and 37° C. using an RMI 1640 medium (GIBCO) containing 10 mM HEPES, 10% FBS, 1 mM sodium pyruvate, 50 μM β-mercaptoethanol, 100 units/ml penicillin, and 100 μg/ml streptomycin. Subculturing was carried out every 7 days, using PBS containing 0.25% trypsin/0.02% EDTA
The cells were seeded on a 48-well plate at a concentration of 1×10^5 cells/well and were cultured for 48 hours. After washing the cells with PBS, the cells were cultured in an RPMI-1640 medium (test medium) for 12 to 15 hours which had been deprived of serum and to which 3 mM glucose and 0.1% BSA had been added. […] The cells were cultured in the media for 20 hours, and after further addition of [^3H] thymidine (Amersham) to the media in order to achieve a radioactivity of 1 μCi/well, the cells were cultured for additional 4 hours. After washing the cells with PBS twice followed by with 10% trichloroacetic acid (TCA) twice, the cells were fixed by TCA treatment for 30 minutes. The cells were solublized with 0.1 N NaOH and the radioactivity of each medium was measured with a liquid scintillation counter.

Reg IIIβ = assay: Real-time quantitative RT-PCR of Reg IIIβ mRNA in INS-1 cells treated with PACAP; type: cell-based, rat
Procedure: as §1
Real-time quantitative PCR was conducted under the conditions similarly to the mouse islet case. The expression level of the β-actin gene was analyzed as an internal standard in a similar manner. In PCR the primers having the following sequences were used.

isolated islet = settings: cited from earlier work
Reg IIIβ gene = assay: Gene expression inhibition by siRNA, Reg IIIβ mRNA by real-time quantitative RT-PCR; type: cell-based, rat; settings: INS-1 cells, siRNA 100 nM, 24 hours after introduction
Procedure: (§2) INS-1 cells (rat pancreatic β cell line) were cultured in an incubator at 5% CO2/95% air and 37° C. using an RPMI 1640 medium (GIBCO) containing 10 mM HEPES, 10% FBS, 1 mM sodium pyruvate, and 50 μM β-mercaptoethanol. Subculturing was carried out every 5 days, using PBS containing 0.25% trypsin/0.02% EDTA.
(§3) The cells were seeded on a 12-well plate (Iwaki Glass Co. Ltd.) at a concentration of 0.25×10^5 cells/cm^2 and were cultured for 48 hours. A cocktail of three types of siRNAs to the Reg IIIβ gene, individual siRNAs (three types), siRNA to Lamin (positive control; B-Bridge), and a cocktail of three types of non-specific siRNAs (negative control; B-Bridge) were diluted with Opti-MEM (GIBCO) so as to produce the final concentrations of 100 nM. The respective RNAs were introduced into the cells using Lipofectamine 2000 (Invitrogen Corporation) and the cells were cultured for 24 hours. After washing the cells with PBS twice, total RNAs were prepared using a SV Total Isolation Kit (Promega Corporation) and cDNA pools were then prepared using reverse transcriptase M-MLV (Invitrogen Corporation). Real-time quantitative PCR was conducted under the conditions similarly to the mouse islet case. The expression level of the rat β-actin gene was analyzed as an internal standard in a similar manner. The sequences of the siRNAs and the sequences of specific primers for PCR are shown below.

Lamin gene = assay: Gene expression inhibition by siRNA, Lamin mRNA by real-time quantitative RT-PCR; type: cell-based, rat; settings: INS-1 cells, siRNA 100 nM, 24 hours after introduction
Procedure: as §2, §3

CC[C@H](C)[C@H](NC(=O)CNC(=O)[C@H](CC(=O)O)NC(=O)[C@H](CO)NC(=O)[C@@H](N)Cc1c[nH]cn1)C(=O)N[C@@H](Cc1ccccc1)C(=O)N[C@H](C(=O)N[C@@H](CC(=O)O)C(=O)N[C@@H](CO)C(=O)N[C@@H](Cc1ccc(O)cc1)C(=O)N[C@@H](CO)C(=O)N[C@@H](CCCNC(=N)N)C(=O)N[C@@H](Cc1ccc(O)cc1)C(=O)N[C@@H](CCCNC(=N)N)C(=O)N[C@@H](CCCCN)C(=O)N[C@@H](CCC(N)=O)C(=O)N[C@@H](CCSC)C(=O)N[C@@H](C)C(=O)N[C@H](C(=O)N[C@@H](CCCCN)C(=O)N[C@@H](CCCCN)C(=O)N[C@@H](Cc1ccc(O)cc1)C(=O)N[C@@H](CC(C)C)C(=O)N[C@@H](C)C(=O)N[C@@H](C)C(=O)N[C@H](C(=O)N[C@@H](CC(C)C)C(=O)NCC(=O)N[C@@H](CCCCN)C(=O)N[C@@H](CCCNC(=N)N)C(=O)N[C@@H](Cc1ccc(O)cc1)C(=O)N[C@@H](CCCCN)C(=O)N[C@@H](CCC(N)=O)C(=O)N[C@@H](CCCNC(=N)N)C(=O)N[C@H](C(=O)N[C@@H](CCCCN)C(=O)N[C@@H](CC(N)=O)C(=O)N[C@@H](CCCCN)C(N)=O)C(C)C)C(C)C)C(C)C)[C@@H](C)O [PACAP]
effect on cell growth (INS-1 cells; 3 mM glucose): No effects | effect on cell growth (INS-1 cells; 11 mM glucose): No effects | cell growth inhibition, dependence on PACAP concentration (INS-1 cells; high glucose concentration, varying PACAP concentration): inhibited the cell growth of INS-1 cells in a concentration-dependent manner | change in mRNA expression of Reg IIIβ (Reg IIIβ; 3 mM glucose): no change in expression | change in mRNA expression of Reg IIIβ (Reg IIIβ; 11 mM glucose): no change in expression | change in mRNA expression of Reg IIIβ (Reg IIIβ; high glucose concentration (25 mM), after 4 hours): expression-induction | change in mRNA expression of Reg IIIβ (Reg IIIβ; high glucose concentration (25 mM), until after 48 hours): continuous increase in the expression | level at which glucose-inducible insulin secretion is promoted (isolated islet): 10^−14 M

(3): double-stranded siRNA to Reg IIIβ, SEQ ID NO:20/21 (chain 1 GGAAACAGCUACCAAUAUATT; chain 2 UAUAUUGGUAGCUGUUUCCTT; chemistry not given here)
suppression of expression of Reg IIIβ gene vs negative control (Reg IIIβ gene): about 60%

Lamin siRNA: double-stranded siRNA to Lamin A/C, positive control (B-Bridge), SEQ ID NO:14/15 (chain 1 GGUGGUGACGAUCUGGGCUTT; chain 2 AGCCCAGAUCGUCACCACCTT; chemistry not given here)
suppression of expression of Lamin gene vs negative control (Lamin gene): about 65%
